Assay results reported in ChEMBL document CHEMBL2073973, “Mitotracker green is a P-glycoprotein substrate” (Biosci Rep, 2003).

Target: ATP-dependent translocase ABCB1 (Homo sapiens, UniProt P08183)
Experiment: TP_TRANSPORTER: cell accumulation in Lucena-1 cells
Format: functional, cell-based

ATP-dependent translocase ABCB1, sequence (P08183 whole entry): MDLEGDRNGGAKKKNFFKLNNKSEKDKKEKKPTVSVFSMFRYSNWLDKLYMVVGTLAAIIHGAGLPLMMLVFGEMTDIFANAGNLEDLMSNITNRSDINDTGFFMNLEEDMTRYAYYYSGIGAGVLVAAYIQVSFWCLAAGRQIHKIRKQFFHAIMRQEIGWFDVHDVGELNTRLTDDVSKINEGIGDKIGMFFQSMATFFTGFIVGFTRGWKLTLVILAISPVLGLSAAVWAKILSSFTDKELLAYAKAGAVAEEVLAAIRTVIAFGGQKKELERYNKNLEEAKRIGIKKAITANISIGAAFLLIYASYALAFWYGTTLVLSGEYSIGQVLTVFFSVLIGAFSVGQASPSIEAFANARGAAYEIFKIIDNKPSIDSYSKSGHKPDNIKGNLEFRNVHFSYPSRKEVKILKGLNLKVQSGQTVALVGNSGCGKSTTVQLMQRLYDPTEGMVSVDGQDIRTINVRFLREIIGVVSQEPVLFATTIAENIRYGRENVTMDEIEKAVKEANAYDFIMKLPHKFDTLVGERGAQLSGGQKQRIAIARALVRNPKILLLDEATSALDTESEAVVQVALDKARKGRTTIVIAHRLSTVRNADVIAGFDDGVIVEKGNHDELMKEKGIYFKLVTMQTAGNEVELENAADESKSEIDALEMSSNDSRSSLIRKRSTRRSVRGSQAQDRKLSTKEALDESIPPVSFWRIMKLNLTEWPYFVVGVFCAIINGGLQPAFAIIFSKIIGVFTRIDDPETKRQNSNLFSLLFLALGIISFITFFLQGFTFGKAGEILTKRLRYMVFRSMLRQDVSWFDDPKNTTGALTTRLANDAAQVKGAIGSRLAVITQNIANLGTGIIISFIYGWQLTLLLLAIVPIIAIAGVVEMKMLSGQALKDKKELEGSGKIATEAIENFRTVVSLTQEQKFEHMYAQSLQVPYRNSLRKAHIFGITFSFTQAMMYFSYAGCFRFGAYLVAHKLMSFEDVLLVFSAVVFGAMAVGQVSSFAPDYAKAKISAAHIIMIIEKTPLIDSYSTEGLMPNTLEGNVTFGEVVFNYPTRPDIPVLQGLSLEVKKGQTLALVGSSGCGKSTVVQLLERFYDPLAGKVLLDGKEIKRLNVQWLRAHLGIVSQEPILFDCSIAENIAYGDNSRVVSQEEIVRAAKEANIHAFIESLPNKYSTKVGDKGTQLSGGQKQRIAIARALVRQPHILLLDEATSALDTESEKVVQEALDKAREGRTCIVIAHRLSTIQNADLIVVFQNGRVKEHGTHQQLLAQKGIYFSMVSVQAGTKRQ

With `CN1C(=CC=Cc2n(Cc3ccc(CCl)cc3)c3cc(Cl)c(Cl)cc3[n+]2Cc2ccc(CCl)cc2)Oc2ccccc21.[Cl-]` [MITOTRACKER GREEN] the Activity was “substrate [+]”.
